Experimental data from patent US20230085307A1, “PYRIDAZINONE COMPOUND AND HERBICIDE” (NISSAN CHEMICAL CORPORATION, priority 2019, published 2023).

Columns and labels:
[1] = test system: barnyard grass; test: Test Example 3: herbicidal effect by foliage application, Wagner pot (Table 18, symbol H); assay type: in vivo, barnyard grass (Echinochloa crus-galli); conditions: 320 g/ha
Procedure, shortened: (§1)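 Plants were sown in alluvial soil held under 0.1–0.5 cm standing water and grown 14 days in a greenhouse at 25–30 °C. An emulsifiable formulation, water-diluted to the set dose, was then sprayed onto the foliage, and effects were scored three weeks later using previously defined criteria.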

[2] = test system: late watergrass; test: Test Example 1: herbicidal activity, application before weed generation under submerged conditions (Table 16, symbol A); assay type: in vivo, late watergrass (Echinochloa oryzicola); conditions: amount of applied herbicide 320 g/ha
Procedure, shortened: (§2)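 Submerged Wagner pots (alluvial soil, 4 cm water) sown with weed seeds and planted with 2.5-leaf rice seedlings; emulsifiable concentrate diluted in water applied to water surface on sowing day. Held in greenhouse at 25-30 °C; injury scored 0-5 by herbicidal rate after three weeks.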

[3] = test system: Japanese bulrush; test: Test Example 1: herbicidal activity, application before weed generation under submerged conditions (Table 16, symbol B); assay type: in vivo, Japanese bulrush (Schoenoplectus juncoides); conditions: amount of applied herbicide 320 g/ha
Procedure, shortened: as §2

[4] = test system: green foxtail; test: Test Example 5: herbicidal effect by foliage application, plastic box (Table 20, symbol G); assay type: in vivo, green foxtail (Setaria viridis); conditions: foliage application after 14-day growth, evaluated three weeks after application; for herbicidal effect on G: green foxtail (evaluation grade 0-5): 320 g/ha
Procedure, shortened: (§3)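 Plants sown in sterilized diluvial soil and grown 14 days in a greenhouse at 25° C to 30° C, then sprayed on the foliage with the compound's emulsion diluted in water to a predetermined herbicide amount. Injury to weeds and crops scored three weeks after application on a visual rating scale.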

[5] = test system: southern crabgrass; test: Test Example 5: herbicidal effect by foliage application, plastic box (Table 20, symbol F); assay type: in vivo, southern crabgrass (Digitaria ciliaris); conditions: foliage application after 14-day growth, evaluated three weeks after application; for herbicidal effect on F: southern crabgrass (evaluation grade 0-5): 320 g/ha
Procedure, shortened: as §3

[6] = test system: chickweed; test: Test Example 5: herbicidal effect by foliage application, plastic box (Table 20, symbol P); assay type: in vivo, common chickweed (Stellaria media); conditions: foliage application after 14-day growth, evaluated three weeks after application; for herbicidal effect on P: chickweed (evaluation grade 0-5): 320 g/ha
Procedure, shortened: as §3

[7] = test system: lambsquarters; test: Test Example 5: herbicidal effect by foliage application, plastic box (Table 20, symbol O); assay type: in vivo, lambsquarters (Chenopodium album); conditions: foliage application after 14-day growth, evaluated three weeks after application; for herbicidal effect on O: lambsquarters (evaluation grade 0-5): 320 g/ha
Procedure, shortened: as §3

[8] = test system: rice flat sedge; test: Test Example 3: herbicidal effect by foliage application, Wagner pot (Table 18, symbol E); assay type: in vivo, rice flat sedge (Cyperus iria); conditions: 320 g/ha
Procedure, shortened: as §1

[9] = test system: Italian ryegrass; test: Test Example 5: herbicidal effect by foliage application, plastic box (Table 20, symbol K); assay type: in vivo, Italian ryegrass (Lolium multiflorum); conditions: foliage application after 14-day growth, evaluated three weeks after application; for herbicidal effect on K: Italian ryegrass (evaluation grade 0-5): 320 g/ha
Procedure, shortened: as §3

[10] = test system: redroot pigweed; test: Test Example 5: herbicidal effect by foliage application, plastic box (Table 20, symbol N); assay type: in vivo, redroot pigweed (Amaranthus retroflexus); conditions: foliage application after 14-day growth, evaluated three weeks after application; for herbicidal effect on N: redroot pigweed (evaluation grade 0-5): 320 g/ha
Procedure, shortened: as §3

[11] = test system: barnyard grass; test: Test Example 5: herbicidal effect by foliage application, plastic box (Table 20, symbol H); assay type: in vivo, barnyard grass (Echinochloa crus-galli); conditions: foliage application after 14-day growth, evaluated three weeks after application; for herbicidal effect on H: barnyard grass (evaluation grade 0-5): 320 g/ha
Procedure, shortened: as §3

[12] = test system: wild oat; test: Test Example 5: herbicidal effect by foliage application, plastic box (Table 20, symbol I); assay type: in vivo, wild oat (Avena fatua); conditions: foliage application after 14-day growth, evaluated three weeks after application; for herbicidal effect on I: wild oat (evaluation grade 0-5): 320 g/ha
Procedure, shortened: as §3

[13] = test system: blackgrass; test: Test Example 5: herbicidal effect by foliage application, plastic box (Table 20, symbol J); assay type: in vivo, blackgrass (Alopecurus myosuroides); conditions: foliage application after 14-day growth, evaluated three weeks after application; for herbicidal effect on J: blackgrass (evaluation grade 0-5): 320 g/ha
Procedure, shortened: as §3

[14] = test system: oval-leafed pondweed; test: Test Example 1: herbicidal activity, application before weed generation under submerged conditions (Table 16, symbol C); assay type: in vivo, oval-leafed pondweed (Monochoria vaginalis); conditions: amount of applied herbicide 320 g/ha
Procedure, shortened: as §2

[15] = test system: windgrass; test: Test Example 5: herbicidal effect by foliage application, plastic box (Table 20, symbol L); assay type: in vivo, windgrass (Apera spica-venti); conditions: foliage application after 14-day growth, evaluated three weeks after application; for herbicidal effect on L: windgrass (evaluation grade 0-5): 320 g/ha
Procedure, shortened: as §3

[16] = test system: Chinese sprangletop; test: Test Example 3: herbicidal effect by foliage application, Wagner pot (Table 18, symbol D); assay type: in vivo, chinese sprangletop (Leptochloa chinensis); conditions: 320 g/ha
Procedure, shortened: as §1

[17] = test system: velvetleaf; test: Test Example 5: herbicidal effect by foliage application, plastic box (Table 20, symbol M); assay type: in vivo, velvetleaf (Abutilon theophrasti); conditions: foliage application after 14-day growth, evaluated three weeks after application; for herbicidal effect on M: velvetleaf (evaluation grade 0-5): 320 g/ha
Procedure, shortened: as §3

[18] = test system: persian speedwell; test: Test Example 5: herbicidal effect by foliage application, plastic box (Table 20, symbol R); assay type: in vivo, Persian speedwell (Veronica persica); conditions: foliage application after 14-day growth, evaluated three weeks after application; for herbicidal effect on R: persian speedwell (evaluation grade 0-5): 320 g/ha
Procedure, shortened: as §3

[19] = amount of applied herbicide 320 g/ha

## CCCC(=O)Oc1c(C)nn(C)c(=O)c1-c1c(-c2ccccc2C)sc2c(Cl)cccc12 [4-061]
[1]
  herbicidal effect on barnyard grass (H): 3 (Herbicidal rate of 40% or more and less than 70%)
[2]
  Herbicidal effect, A: late watergrass: 3 (Herbicidal rate of 40% or more and less than 70%)
[3]
  Herbicidal effect, B: Japanese bulrush: 0 (Herbicidal rate of 5% or less (almost no effect))
[4]
  herbicidal effect on G: green foxtail (evaluation grade 0-5): 0 (Herbicidal rate of 5% or less (almost no effect))
[5]
  herbicidal effect on F: southern crabgrass (evaluation grade 0-5): 0 (Herbicidal rate of 5% or less (almost no effect))
[6]
  herbicidal effect on P: chickweed (evaluation grade 0-5): 3 (Herbicidal rate of 40% or more and less than 70%)
[7]
  herbicidal effect on O: lambsquarters (evaluation grade 0-5): 0 (Herbicidal rate of 5% or less (almost no effect))
[8]
  herbicidal effect on rice flat sedge (E): 4 (Herbicidal rate of 70% or more and less than 90%)
[9]
  herbicidal effect on K: Italian ryegrass (evaluation grade 0-5): 0 (Herbicidal rate of 5% or less (almost no effect))
[10]
  herbicidal effect on N: redroot pigweed (evaluation grade 0-5): 2 (Herbicidal rate of 20% or more and less than 40%)
[11]
  herbicidal effect on H: barnyard grass (evaluation grade 0-5): 0 (Herbicidal rate of 5% or less (almost no effect))
[12]
  herbicidal effect on I: wild oat (evaluation grade 0-5): 0 (Herbicidal rate of 5% or less (almost no effect))
[13]
  herbicidal effect on J: blackgrass (evaluation grade 0-5): 0 (Herbicidal rate of 5% or less (almost no effect))
[14]
  Herbicidal effect, C: oval-leafed pondweed: 0 (Herbicidal rate of 5% or less (almost no effect))
[15]
  herbicidal effect on L: windgrass (evaluation grade 0-5): 0 (Herbicidal rate of 5% or less (almost no effect))
[16]
  herbicidal effect on Chinese sprangletop (D): 3 (Herbicidal rate of 40% or more and less than 70%)
[17]
  herbicidal effect on M: velvetleaf (evaluation grade 0-5): 0 (Herbicidal rate of 5% or less (almost no effect))
[18]
  herbicidal effect on R: persian speedwell (evaluation grade 0-5): 2 (Herbicidal rate of 20% or more and less than 40%)

## CCc1ccccc1-c1sc2c(Cl)cccc2c1-c1c(O)c(C)nn(C)c1=O [4-062]
[1]
  herbicidal effect on barnyard grass (H): 4 (Herbicidal rate of 70% or more and less than 90%)
[2]
  Herbicidal effect, A: late watergrass: 0 (Herbicidal rate of 5% or less (almost no effect))
[3]
  Herbicidal effect, B: Japanese bulrush: 2 (Herbicidal rate of 20% or more and less than 40%)
[4]
  herbicidal effect on G: green foxtail (evaluation grade 0-5): 3 (Herbicidal rate of 40% or more and less than 70%)
[5]
  herbicidal effect on F: southern crabgrass (evaluation grade 0-5): 1 (Herbicidal rate of 5% or more and less than 20%)
[6]
  herbicidal effect on P: chickweed (evaluation grade 0-5): 3 (Herbicidal rate of 40% or more and less than 70%)
[7]
  herbicidal effect on O: lambsquarters (evaluation grade 0-5): 0 (Herbicidal rate of 5% or less (almost no effect))
[8]
  herbicidal effect on rice flat sedge (E): 3 (Herbicidal rate of 40% or more and less than 70%)
[9]
  herbicidal effect on K: Italian ryegrass (evaluation grade 0-5): 0 (Herbicidal rate of 5% or less (almost no effect))
[10]
  herbicidal effect on N: redroot pigweed (evaluation grade 0-5): 3 (Herbicidal rate of 40% or more and less than 70%)
[11]
  herbicidal effect on H: barnyard grass (evaluation grade 0-5): 1 (Herbicidal rate of 5% or more and less than 20%)
[12]
  herbicidal effect on I: wild oat (evaluation grade 0-5): 0 (Herbicidal rate of 5% or less (almost no effect))
[13]
  herbicidal effect on J: blackgrass (evaluation grade 0-5): 0 (Herbicidal rate of 5% or less (almost no effect))
[14]
  Herbicidal effect, C: oval-leafed pondweed: 0 (Herbicidal rate of 5% or less (almost no effect))
[15]
  herbicidal effect on L: windgrass (evaluation grade 0-5): 0 (Herbicidal rate of 5% or less (almost no effect))
[16]
  herbicidal effect on Chinese sprangletop (D): 4 (Herbicidal rate of 70% or more and less than 90%)
[17]
  herbicidal effect on M: velvetleaf (evaluation grade 0-5): 2 (Herbicidal rate of 20% or more and less than 40%)
[18]
  herbicidal effect on R: persian speedwell (evaluation grade 0-5): 3 (Herbicidal rate of 40% or more and less than 70%)

## CCCC(=O)Oc1c(C)nn(C)c(=O)c1-c1c(-c2cccc(OC)c2)sc2c(Cl)cccc12 [4-065]
[1]
  herbicidal effect on barnyard grass (H): 4 (Herbicidal rate of 70% or more and less than 90%)
[2]
  Herbicidal effect, A: late watergrass: 4 (Herbicidal rate of 70% or more and less than 90%)
[3]
  Herbicidal effect, B: Japanese bulrush: 0 (Herbicidal rate of 5% or less (almost no effect))
[4]
  herbicidal effect on G: green foxtail (evaluation grade 0-5): 0 (Herbicidal rate of 5% or less (almost no effect))
[5]
  herbicidal effect on F: southern crabgrass (evaluation grade 0-5): 0 (Herbicidal rate of 5% or less (almost no effect))
[6]
  herbicidal effect on P: chickweed (evaluation grade 0-5): 3 (Herbicidal rate of 40% or more and less than 70%)
[7]
  herbicidal effect on O: lambsquarters (evaluation grade 0-5): 2 (Herbicidal rate of 20% or more and less than 40%)
[8]
  herbicidal effect on rice flat sedge (E): 3 (Herbicidal rate of 40% or more and less than 70%)
[9]
  herbicidal effect on K: Italian ryegrass (evaluation grade 0-5): 0 (Herbicidal rate of 5% or less (almost no effect))
[10]
  herbicidal effect on N: redroot pigweed (evaluation grade 0-5): 5 (Herbicidal rate of 90% or more (almost completely withered))
[11]
  herbicidal effect on H: barnyard grass (evaluation grade 0-5): 0 (Herbicidal rate of 5% or less (almost no effect))
[12]
  herbicidal effect on I: wild oat (evaluation grade 0-5): 0 (Herbicidal rate of 5% or less (almost no effect))
[13]
  herbicidal effect on J: blackgrass (evaluation grade 0-5): 0 (Herbicidal rate of 5% or less (almost no effect))
[14]
  Herbicidal effect, C: oval-leafed pondweed: 1 (Herbicidal rate of 5% or more and less than 20%)
[15]
  herbicidal effect on L: windgrass (evaluation grade 0-5): 0 (Herbicidal rate of 5% or less (almost no effect))
[16]
  herbicidal effect on Chinese sprangletop (D): 3 (Herbicidal rate of 40% or more and less than 70%)
[17]
  herbicidal effect on M: velvetleaf (evaluation grade 0-5): 1 (Herbicidal rate of 5% or more and less than 20%)
[18]
  herbicidal effect on R: persian speedwell (evaluation grade 0-5): 3 (Herbicidal rate of 40% or more and less than 70%)

## Cc1nn(C)c(=O)c(-c2c(-c3ccccc3C(F)(F)F)sc3c(Cl)cccc23)c1O [4-070]
[1]
  herbicidal effect on barnyard grass (H): 5 (Herbicidal rate of 90% or more (almost completely withered))
[2]
  Herbicidal effect, A: late watergrass: 3 (Herbicidal rate of 40% or more and less than 70%)
[3]
  Herbicidal effect, B: Japanese bulrush: 2 (Herbicidal rate of 20% or more and less than 40%)
[4]; [19]
  Herbicidal effect by foliage application, G: green foxtail: 0 (Herbicidal rate of 5% or less (almost no effect))
[5]; [19]
  Herbicidal effect by foliage application, F: southern crabgrass: 0 (Herbicidal rate of 5% or less (almost no effect))
[6]; [19]
  Herbicidal effect by foliage application, P: chickweed: 5 (Herbicidal rate of 90% or more (almost completely withered))
[7]; [19]
  Herbicidal effect by foliage application, O: lambsquarters: 3 (Herbicidal rate of 40% or more and less than 70%)
[8]
  herbicidal effect on rice flat sedge (E): 4 (Herbicidal rate of 70% or more and less than 90%)
[9]; [19]
  Herbicidal effect by foliage application, K: Italian ryegrass: 3 (Herbicidal rate of 40% or more and less than 70%)
[10]; [19]
  Herbicidal effect by foliage application, N: redroot pigweed: 3 (Herbicidal rate of 40% or more and less than 70%)
[11]; [19]
  Herbicidal effect by foliage application, H: barnyard grass: 0 (Herbicidal rate of 5% or less (almost no effect))
[12]; [19]
  Herbicidal effect by foliage application, I: wild oat: 0 (Herbicidal rate of 5% or less (almost no effect))
[13]; [19]
  Herbicidal effect by foliage application, J: blackgrass: 0 (Herbicidal rate of 5% or less (almost no effect))
[14]
  Herbicidal effect, C: oval-leafed pondweed: 1 (Herbicidal rate of 5% or more and less than 20%)
[15]; [19]
  Herbicidal effect by foliage application, L: windgrass: 0 (Herbicidal rate of 5% or less (almost no effect))
[16]
  herbicidal effect on Chinese sprangletop (D): 4 (Herbicidal rate of 70% or more and less than 90%)
[17]; [19]
  Herbicidal effect by foliage application, M: velvetleaf: 0 (Herbicidal rate of 5% or less (almost no effect))
[18]; [19]
  Herbicidal effect by foliage application, R: persian speedwell: 5 (Herbicidal rate of 90% or more (almost completely withered))
